# PubChem BioAssay (NCI)
#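 Results reflect a 48-hour exposure of cells in 96-well plates to compound at five concentrations. TGI: total growth inhibition.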
# What was measured:
# Assay in all cases: NCI anticancer screen, dose series, 48 h
# MCF7 breast = tested on: MCF7 breast
# KM12 colon = tested on: KM12 colon
# UACC-257 melanoma = tested on: UACC-257 melanoma
# HS 578T breast = tested on: HS 578T breast
# HCT-116 colon = tested on: HCT-116 colon
# NCI-H522 lung = tested on: NCI-H522 lung
# SN12C renal = tested on: SN12C renal
# OVCAR-3 ovarian = tested on: OVCAR-3 ovarian
# A549 NSCLC = tested on: A549 NSCLC
# CCRF-CEM leukemia = tested on: CCRF-CEM leukemia
smiles,measurement,setting,value
COc1ccc(OC)c(CSc2ccc(OC)c(OC)c2)c1,TGI,MCF7 breast,> 100 µM
same,TGI,KM12 colon,> 100 µM
same,TGI,UACC-257 melanoma,> 100 µM
same,TGI,HS 578T breast,> 100 µM
same,TGI,HCT-116 colon,> 100 µM
same,TGI,NCI-H522 lung,> 100 µM
same,TGI,SN12C renal,> 100 µM
same,TGI,OVCAR-3 ovarian,> 100 µM
same,TGI,A549 NSCLC,> 100 µM
same,TGI,CCRF-CEM leukemia,> 100 µM
FC(F)(F)c1ccc(Cc2nc3cc4ccccc4cc3[nH]2)cc1,TGI,MCF7 breast,> 100 µM
same,TGI,KM12 colon,> 100 µM
same,TGI,UACC-257 melanoma,> 100 µM
same,TGI,HS 578T breast,> 100 µM
same,TGI,HCT-116 colon,> 100 µM
same,TGI,NCI-H522 lung,> 100 µM
same,TGI,SN12C renal,> 100 µM
same,TGI,OVCAR-3 ovarian,> 100 µM
same,TGI,A549 NSCLC,> 100 µM
same,TGI,CCRF-CEM leukemia,> 100 µM
C1=NCCN2CCN(CCN=Cc3ccccc3OCc3cccc(n3)COc3ccccc31)CC2,TGI,MCF7 breast,9.29 µM
same,TGI,KM12 colon,26.2 µM
same,TGI,UACC-257 melanoma,34.4 µM
same,TGI,HS 578T breast,4.43 µM
same,TGI,HCT-116 colon,18.8 µM
same,TGI,NCI-H522 lung,> 50 µM
same,TGI,SN12C renal,26.3 µM
same,TGI,OVCAR-3 ovarian,4.66 µM
same,TGI,A549 NSCLC,> 50 µM
same,TGI,CCRF-CEM leukemia,> 50 µM
CC1(C)CC(O)C2=C(O1)C(=O)c1ncccc1C2=O (stereo not given),TGI,MCF7 breast,5.34 µM
same,TGI,KM12 colon,8.17 µM
same,TGI,UACC-257 melanoma,3.19 µM
same,TGI,HS 578T breast,6.56 µM
same,TGI,HCT-116 colon,5.76 µM
same,TGI,NCI-H522 lung,3.86 µM
same,TGI,SN12C renal,3.68 µM
same,TGI,OVCAR-3 ovarian,5.4 µM
same,TGI,A549 NSCLC,23.4 µM
same,TGI,CCRF-CEM leukemia,> 20.7 µM
CC(=O)OC(CN1CCN(c2ccccn2)CC1)Cn1sc2nc(C)cc(C)c2c1=O (stereo not given),TGI,MCF7 breast,34 µM
same,TGI,KM12 colon,49 µM
same,TGI,UACC-257 melanoma,32 µM
same,TGI,HS 578T breast,44.8 µM
same,TGI,HCT-116 colon,30.5 µM
same,TGI,NCI-H522 lung,22.7 µM
same,TGI,SN12C renal,37.2 µM
same,TGI,OVCAR-3 ovarian,50.7 µM
same,TGI,A549 NSCLC,45.8 µM
same,TGI,CCRF-CEM leukemia,> 100 µM
Oc1cc(O)c2ccc(-c3ccc(O)c(O)c3)[o+]c2c1,TGI,MCF7 breast,> 100 µM
same,TGI,KM12 colon,> 100 µM
same,TGI,UACC-257 melanoma,> 100 µM
same,TGI,HS 578T breast,> 100 µM
same,TGI,HCT-116 colon,> 100 µM
same,TGI,NCI-H522 lung,> 100 µM
same,TGI,SN12C renal,> 100 µM
same,TGI,OVCAR-3 ovarian,> 100 µM
same,TGI,A549 NSCLC,> 100 µM
same,TGI,CCRF-CEM leukemia,> 100 µM
Cn1c(NNc2ccccc2)cc(=O)[nH]c1=O,TGI,MCF7 breast,> 100 µM
same,TGI,KM12 colon,65.3 µM
same,TGI,UACC-257 melanoma,> 100 µM
same,TGI,HS 578T breast,> 100 µM
same,TGI,HCT-116 colon,> 100 µM
same,TGI,NCI-H522 lung,40.5 µM
same,TGI,SN12C renal,> 100 µM
same,TGI,OVCAR-3 ovarian,61.6 µM
same,TGI,A549 NSCLC,> 100 µM
same,TGI,CCRF-CEM leukemia,53 µM
Cc1cc(O)c2c(c1O)C(=O)c1cccc(O)c1C2=O,TGI,MCF7 breast,> 100 µM
same,TGI,KM12 colon,> 100 µM
same,TGI,UACC-257 melanoma,> 100 µM
same,TGI,HS 578T breast,> 100 µM
same,TGI,HCT-116 colon,> 100 µM
same,TGI,NCI-H522 lung,> 100 µM
same,TGI,SN12C renal,> 100 µM
same,TGI,OVCAR-3 ovarian,> 100 µM
same,TGI,A549 NSCLC,> 100 µM
same,TGI,CCRF-CEM leukemia,> 100 µM
Nc1ccc2nc3c(nc2c1)C(=O)c1ccccc1-3,TGI,MCF7 breast,> 100 µM
same,TGI,KM12 colon,> 100 µM
same,TGI,UACC-257 melanoma,> 100 µM
same,TGI,HS 578T breast,> 100 µM
same,TGI,HCT-116 colon,> 100 µM
same,TGI,NCI-H522 lung,> 100 µM
same,TGI,SN12C renal,> 100 µM
same,TGI,OVCAR-3 ovarian,> 100 µM
same,TGI,A549 NSCLC,> 100 µM
same,TGI,CCRF-CEM leukemia,> 100 µM
O=C(NC(=S)Nc1ccc2c(c1)Sc1ccccc1O2)c1ccc([N+](=O)[O-])cc1,TGI,MCF7 breast,> 100 µM
same,TGI,KM12 colon,> 100 µM
same,TGI,UACC-257 melanoma,> 100 µM
same,TGI,HS 578T breast,> 100 µM
same,TGI,HCT-116 colon,> 100 µM
same,TGI,NCI-H522 lung,> 100 µM
same,TGI,SN12C renal,> 100 µM
same,TGI,OVCAR-3 ovarian,> 100 µM
same,TGI,A549 NSCLC,> 100 µM
same,TGI,CCRF-CEM leukemia,> 100 µM
OCc1cc2c(ccc3sc4ccc5sc6ccc7ncccc7c6c5c4c32)s1,TGI,MCF7 breast,42.2 µM
same,TGI,KM12 colon,20.4 µM
same,TGI,UACC-257 melanoma,37.2 µM
same,TGI,HS 578T breast,31.9 µM
same,TGI,HCT-116 colon,23 µM
same,TGI,NCI-H522 lung,27.6 µM
same,TGI,SN12C renal,26.8 µM
same,TGI,OVCAR-3 ovarian,> 100 µM
same,TGI,A549 NSCLC,31.1 µM
same,TGI,CCRF-CEM leukemia,> 100 µM
O=P1(Oc2ccccc2)N=P(c2ccccc2)(c2ccccc2)C=C(c2ccc(Cl)cc2)N1 (stereo not given),TGI,MCF7 breast,9.31 µM
same,TGI,KM12 colon,25.1 µM
same,TGI,UACC-257 melanoma,30.8 µM
same,TGI,HS 578T breast,43.5 µM
same,TGI,HCT-116 colon,30.5 µM
same,TGI,NCI-H522 lung,24.2 µM
same,TGI,SN12C renal,32.4 µM
same,TGI,OVCAR-3 ovarian,13.6 µM
same,TGI,A549 NSCLC,16.1 µM
same,TGI,CCRF-CEM leukemia,26.6 µM
CC(=O)OCC(OC(C)=O)C(OC(C)=O)C(/C=N\Nc1nc2ccccc2c(=O)[nH]1)=N\Nc1nc2ccccc2c(=O)[nH]1 (stereo not given),TGI,MCF7 breast,> 100 µM
same,TGI,KM12 colon,> 100 µM
same,TGI,UACC-257 melanoma,34 µM
same,TGI,HS 578T breast,> 100 µM
same,TGI,HCT-116 colon,> 100 µM
same,TGI,NCI-H522 lung,> 100 µM
same,TGI,SN12C renal,> 100 µM
same,TGI,OVCAR-3 ovarian,> 100 µM
same,TGI,A549 NSCLC,> 100 µM
same,TGI,CCRF-CEM leukemia,> 100 µM
NC(=O)C(=O)c1ncn(Cc2ccccc2)c1N,TGI,MCF7 breast,> 100 µM
same,TGI,KM12 colon,> 100 µM
same,TGI,UACC-257 melanoma,> 100 µM
same,TGI,HS 578T breast,> 100 µM
same,TGI,HCT-116 colon,> 100 µM
same,TGI,NCI-H522 lung,> 100 µM
same,TGI,SN12C renal,> 100 µM
same,TGI,OVCAR-3 ovarian,> 100 µM
same,TGI,A549 NSCLC,> 100 µM
same,TGI,CCRF-CEM leukemia,> 100 µM
CC(=O)C1C(=O)C(=O)N(c2ccccc2)C1=O (stereo not given),TGI,MCF7 breast,> 100 µM
same,TGI,KM12 colon,> 100 µM
same,TGI,UACC-257 melanoma,> 100 µM
same,TGI,HS 578T breast,> 100 µM
same,TGI,HCT-116 colon,> 100 µM
same,TGI,NCI-H522 lung,> 100 µM
same,TGI,SN12C renal,> 100 µM
same,TGI,OVCAR-3 ovarian,> 100 µM
same,TGI,A549 NSCLC,> 100 µM
same,TGI,CCRF-CEM leukemia,> 100 µM
COc1ccc(CC2C3=C(CCN2C(=O)C2CCC2)CC2(CC3)OCCO2)cc1O (stereo not given),TGI,MCF7 breast,> 100 µM
same,TGI,KM12 colon,> 100 µM
same,TGI,UACC-257 melanoma,> 100 µM
same,TGI,HS 578T breast,73.4 µM
same,TGI,HCT-116 colon,> 100 µM
same,TGI,NCI-H522 lung,38.3 µM
same,TGI,SN12C renal,> 100 µM
same,TGI,OVCAR-3 ovarian,35.4 µM
same,TGI,A549 NSCLC,> 100 µM
same,TGI,CCRF-CEM leukemia,> 100 µM
CC(=O)N1N=C(c2ccc3ccccc3c2O)CC1c1cccs1 (stereo not given),TGI,MCF7 breast,> 100 µM
same,TGI,KM12 colon,46.4 µM
same,TGI,UACC-257 melanoma,> 100 µM
same,TGI,HS 578T breast,> 100 µM
same,TGI,HCT-116 colon,> 100 µM
same,TGI,NCI-H522 lung,75.1 µM
same,TGI,SN12C renal,> 100 µM
same,TGI,OVCAR-3 ovarian,> 100 µM
same,TGI,A549 NSCLC,94.9 µM
same,TGI,CCRF-CEM leukemia,> 100 µM
COc1cc(=O)c2c(O)c3c(O)oc(C)cc3c(OC)c2c1,TGI,MCF7 breast,> 100 µM
same,TGI,KM12 colon,65.8 µM
same,TGI,UACC-257 melanoma,> 100 µM
same,TGI,HS 578T breast,> 100 µM
same,TGI,HCT-116 colon,38.4 µM
same,TGI,NCI-H522 lung,> 100 µM
same,TGI,SN12C renal,55.8 µM
same,TGI,OVCAR-3 ovarian,59.1 µM
same,TGI,A549 NSCLC,87.7 µM
same,TGI,CCRF-CEM leukemia,52.6 µM
